# US5516775A, “Further use of pyrimidine derivatives” (Ciba-Geigy Corporation, priority 1992, dated 1996)
# Assays:
# [1] = biological target: Protein kinase C from pig brain; experiment: Determination of the inhibitory action on protein kinase C; type: biochemical; conditions: method of Fabbro et al., read-out: IC50, inhibition of protein kinase C
# Method: Protein kinase C from pig brain is used to determine the inhibitory action on protein kinase C. The inhibitory action of the compounds of formula I on protein kinase C is determined by the method of D. Fabbro et al, as described in Example 2. […] 0.1 to 30 μmol/liter.
# Protein kinase C from pig brain purified in accordance with the procedure described by T. Uchida and C. R. Filbum in J. Biol. Chem. 259, 12311-4 (1984) is used to determine the inhibitory action on protein kinase C. The inhibitory action of the compounds of formula I on protein kinase C is determined by the method of D. Fabro et al., Arch. Biochem. Biophys. 239, 102-111 (1985). The following IC50 values are obtained in this assay for the compounds of formula I: […]
# [2] = test system: Human T24 bladder carcinoma cells; experiment: Inhibition of the growth of human T24 bladder carcinoma cells; type: cell-based; conditions: 120 h, 5 days incubation, methylene blue staining, OD 665 nm
# Method: In this assay, the inhibitory action of compounds of formula I on the growth of human T24 bladder carcinoma cells is determined. The IC50 values obtained for the compounds of formula I are from c. 1 to 10 μmol/liter.
# Human T24 bladder carcinoma cells are incubated in "Eagle's minimal essential medium", to which 5% (v/v) foetal calf serum has been added, in a humidified incubator at 37° C. and 5 percent by volume CO2 in air. The carcinoma cells (1000-1500) are inoculated in 96-well microtitre plates and incubated overnight under the stated conditions. The test compound is added in serial dilutions on day 1. The plates are incubated for 5 days under the stated conditions. During this time the control cultures undergo at least 4 cell divisions. After incubation, the cells are fixed with a 3.3% (g/v) aqueous solution of glutaraldehyde, washed with water and stained with a 0.05% (weight/volume) aqueous solution of methylene blue. After washing, the stain is eluted with 3% (g/v) aqueous hydrochloric acid. Afterwards, the optical density (OD) per well, which is directly proportional to the number of cells, is measured with a photometer (Titertek multiskan) at 665 nm. The IC50 values are computed by a computer system, using the formula [formula] The IC50 values are defined as that active compound concentration at which the number of cells per well at the end of the incubation period is only 50% of the number of cells in the control cultures. The following IC50 values are obtained in this assay for the compounds of formula I: […]
# [3] = test system: human T24 bladder carcinoma; experiment: Antitumour activity in mice (T24 bladder carcinoma transplant); type: in vivo, female Balb/c nude mice; conditions: once daily for 15 days, measured 24 hours after last administration
# Method: In the assay described in Example 3, the compounds of formula I, when administered perorally or intraperitoneally, reduce tumour volume to about 35-70% of tumour volume in control animals treated with placebo.
# On day 0 a c. 25 mg piece of human T24 bladder carcinoma is transplanted subcutaneously using Trokar under operable "forene" narcosis on female Balb/c nude mice (Balb/c(Balb/c nu/nu, Bomholdgaard, Denmark; six mice per group). On day 6 after the tumour transplantation the average tumour volume is 120-140 mm^3 and treatment is commenced. The treatment consists in administering perorally or intraperitoneally once daily over 15 successive days, i.e. altogether 15 times, 25 ml/kg of the following formulation. This formulation is prepared as follows: 16 mg of a compound of formula I are dissolved in 0.4 ml of dimethyl sulfoxide (100% ). Then 0.05 ml of Tween 80 is added to this solution and the batch is mixed. Then 7.6 ml of a 0.9% aqueous solution of sodium chloride are added and the batch is thoroughly mixed. This formulation is prepared fresh daily. The control animals receive a placebo. The placebo is the same formulation without compound of formula I.
# 24 hours after the last administration, the tumour volume is measured and the ratio [%] of the tumour volume T/C is determined in the treated animals (T) and the control animals treated with placebo (C).
SMILES,IC50 [1],IC50 [2],"ratio T/C of tumour volume ([3]; intraperitoneal, 25 mg)","ratio T/C of tumour volume ([3]; intraperitoneal, 50 mg)","ratio T/C of tumour volume ([3]; peroral, 25 mg)","ratio T/C of tumour volume ([3]; peroral, 50 mg)"
"COC(=O)c1cccc(Nc2nccc(-c3cccnc3)n2)c1 [compound E, N-(3-methoxycarbonylphenyl)-4-(3-pyridyl)-2-pyrimidinamine]",26 µM,–,–,–,–,–
"Nc1cccc(Nc2nccc(-c3cccnc3)n2)c1 [compound D, N-(3-aminophenyl)-4-(3-pyridyl)-2-pyrimidinamine]",28 µM,7.2 µM,–,–,–,–
"NCCCNC(=O)c1cccc(Nc2nccc(-c3cccnc3)n2)c1 [compound F, N-(3-[3-aminopropylaminocarbonyl]phenyl)-4-(3-pyridyl)-2-pyrimidinamine]",28 µM,–,–,–,–,–

# Molecules with a lower IC50 [1], results first:
IC50 [1],IC50 [2],SMILES,"ratio T/C of tumour volume ([3]; intraperitoneal, 25 mg)","ratio T/C of tumour volume ([3]; intraperitoneal, 50 mg)","ratio T/C of tumour volume ([3]; peroral, 25 mg)","ratio T/C of tumour volume ([3]; peroral, 50 mg)"
6.3 µM,5.2 µM,"Clc1cccc(Nc2nccc(-c3cccnc3)n2)c1 [compound C, N-(3-chlorophenyl)-4-(3-pyridyl)-2-pyrimidinamine]",–,–,–,–
8.8 µM,2.5 µM,"c1cncc(-c2ccnc(Nc3cccc(-n4ccnc4)c3)n2)c1 [compound A, N-(3-1H-imidazol-1-ylphenyl)-4-(3-pyridyl)-2-pyrimidinamine]",–,–,–,–
2.5 µM,7.4 µM,"FC(F)(F)c1cccc(Nc2nccc(-c3cccnc3)n2)c1 [compound B, N-(3-trifluoromethylphenyl)-4-(3-pyridyl)-2-pyrimidinamine]",54%,46%,68%,53%
